Experimental data from patent US6355864B1, “Versatile rpL34 promoter elements and use thereof” (Battelle Memorial Institute, priority 1999, dated 2002).

How the values were obtained:
rpL34 promoter [1] = conditions: previous promoter analyses (Dai et al. 1996); on top of mechanical wounding; cited from earlier work
rpL34 promoter [2] = assay: Response of rpL34 promoter constructs to wounding and plant hormones in leaf discs of transgenic tobacco; type: in vivo, Nicotiana tabacum; conditions: leaf discs of plants with −1500, m178 or Δ147; 1 μM 2,4-D or 5 μM BA in MS medium, 24 hr; versus wounding alone
Protocol: Fresh young leaves of independent transgenic tobacco were ground in lysis buffer (50 mM sodium phosphate, pH 7.0. 10 mM EDTA, 0.1% TritonX-100, 0.1% sarkosyl and 10 mM DTT). Tobacco protoplast protein was extracted in the same buffer by sonication on ice twice, 5 seconds each time. […] Approximately 5-10 μg of protein was incubated in the presence of 1 mM 4-methylumbelliferyl β-D-glucuronide in 100 μl of lysis buffer at 37 C. Samples from each reaction were taken at 0, 15, and 30 min intervals and the enzyme reaction was quenched in 0.2 M sodium carbonate (Na2CO3). The flurometer was calibrated with 100, 200, 300, and 400 nM 4-methylumbelliferon in 0.2M sodium carbonate.
Kanamycin resistant T1 seedlings, each containing a unique internally deleted rpL34 promoter, were selected and grown to maturity. Six leaf discs excised from the fourth leaf of each plant by paper punch were randomly pooled and incubated in MS medium with 5 μM BA, 1 μM 2,4-D or no plant hormone (wounding treatment) for 24 hr at room temperature. […] The leaf discs ground immediately after excision in protein extraction buffer served as non-wounded tobacco controls.

| Compound | rpL34 promoter activity (rpL34 promoter [1]) | induced GUS activity (rpL34 promoter [2]) |
| --- | --- | --- |
| O=C(O)COc1ccc(Cl)cc1Cl [2,4-D, 2,4-dichlorophenoxyacetic acid] | further enhanced | induced higher GUS activity than wounding alone |
| c1ccc(CNc2ncnc3nc[nH]c23)cc1 [BA, benzyladenine] | further enhanced | induced higher GUS activity than wounding alone |
